Experiments:
[1] = Characterization of lipid nanoparticles encapsulating Fluc-mRNA; type: physicochemical; conditions: for Particle size: LNP (YK-009/DSPC/cholesterol/DMG-PEG2000) encapsulating Fluc-mRNA transcribed using the cap analog; for PDI: LNP encapsulating Fluc-mRNA transcribed using the cap analog; for EE: encapsulation efficiency of LNP encapsulating Fluc-mRNA transcribed using the cap analog
Procedure: Cationic lipid YK-009 (Beijing Youcare Kechuang Pharmaceutical Technology Co., Ltd.), DSPC (AVT (Shanghai) Pharmaceutical Technology Co., Ltd.), cholesterol (AVT (Shanghai) Pharmaceutical Technology Co., Ltd.), and DMG-PEG2000 were dissolved in ethanol at a molar ratio of 49:10:39.5:1.5, and the mRNA was diluted in 50 mM citrate buffer (pH=4). The ethanol lipid solution was mixed with the Fluc-mRNA aqueous solution prepared from different cap structures at a volume ratio of 1:3 using a microfluidic device at a flow rate of 10 mL/min to prepare LNPs at a weight ratio of total lipid to mRNA of approximately 15:1. The resulting liposomes were diluted to 10-fold volume with PBS, and then ultrafiltered with a 300 KDa ultrafiltration tube to remove ethanol. The volume was then fixed to a certain volume with PBS. Finally, the LNPs were filtered through a 0.2 μm sterile filter to obtain an LNP preparation encapsulating Fluc-mRNA using YK-009/DSPC/cholesterol/DMG-PEG2000 (at a molar ratio of 49:10:39.5:1.5).
The particle size and polydispersity index (PDI) were determined by dynamic light scattering using a Malvern laser particle size analyzer. 10 μL of the liposome solution was taken, diluted to 1 mL with RNase-free deionized water, and added to a sample pool. Each sample was measured in triplicate. The measurement conditions were: a scattering angle of 90° and a temperature of 25° C. The encapsulation efficiency of LNPs was determined using the Quant-iT RiboGreen RNA Quantification Kit (Thermo Fisher Scientific, UK) according to the manufacturer's instructions.

BALB/C mice = assay: In vivo imaging of protein expressed by LNP-carrying Fluc-mRNA in mice; conditions: for Average radiation intensity: female BALB/C mice; for average radiation intensity, times that of N-7413: ratio to N-7413; for average radiation intensity, times that of YK-CAP-001: ratio to YK-CAP-001; for average radiation intensity, times that of YK-CAP-002: ratio to YK-CAP-002; for average radiation intensity, times that of compound 14: ratio to compound 14; for average radiation intensity, times that of m6A: ratio to m6A
Procedure: The LNP preparation containing […] of Fluc-mRNAs transcribed using the cap analogs YK-CAP-001 to 006 in the present disclosure and the cap analogs N-7413, compound 14, and m6A in the prior art was intramuscularly injected into female BALB/C mice aged 4 to 6 weeks and weighing 17 to 19 g. At specific time points after administration (6 hours, 12 hours, 24 hours, 48 hours, 96 hours, and 168 hours), the mice were intraperitoneally injected with fluorescence imaging substrate. The mice were then allowed to move freely for 5 minutes, followed by detection of the average radiation intensity (corresponding to the amount of protein expression) of the protein expressed by LNP-carrying mRNA in the mice using an IVIS Spectrum small-animal in vivo imaging system.

T7 RNA polymerase = T7 RNA polymerase (Escherichia phage T7, UniProt P00573); assay: In vitro transcription yield of mRNA with cap analog (co-transcriptional capping); type: biochemical; conditions: for Yield per unit template: in vitro transcription, 1 μg DNA template, 20 μL system, 37° C. 2 hours; for transcription yield higher than that of compound 14: relative to compound 14
Procedure: (1) Capping synthesis using cap analogs
The plasmid was first linearized with plasmid linearizing enzyme, and then the linearized plasmid was purified.
(2) In vitro transcription and synthesis of mRNA
YK-CAP-001 to 006 and compound 14 in Table 1 were respectively used as cap analogs.
During the experiment, the volume of materials required for the system was first calculated, and then sample addition was conducted. The system was first added with sterile enzyme-free water, followed by the sequential addition of 10× buffer, NTPs, and cap analogs, mixed well, and gently centrifuged. Nuclease inhibitors, inorganic pyrophosphatase, T7 RNA polymerase, and linearized DNA templates were then added thereto. The system was mixed well, gently centrifuged, and incubated at 37° C. After 2 hours of incubation, the system was added with 1 U of DNase I and incubated at 37° C. for another 30 minutes. The mRNA precipitate was then washed with 75% ethanol, and after the ethanol was briefly evaporated to dryness, the mRNA was redissolved in sterile enzyme-free water.
(3) The transcription product was purified, and the in vitro transcription yield of mRNA was recorded.

HEK293T cells = assay: Translation efficiency of capped luciferase mRNAs; type: cell-based; conditions: for relative fluorescence intensity, times that of HN3002: ratio to HN3002; for relative fluorescence intensity, times that of N-7413: ratio to N-7413; for relative fluorescence intensity, times that of YK-CAP-001: ratio to YK-CAP-001; for relative fluorescence intensity, times that of YK-CAP-002: ratio to YK-CAP-002; for relative fluorescence intensity, times that of m6A: ratio to m6A
Procedure: (1) HEK293T cells were cultured in DMEM medium containing 10% FBS and penicillin/streptomycin at 37° C. with 5% CO2.
(2) Cells in the culture dish were digested and counted, then spread in a 96-well plate at 10,000 cells per well, and cultured overnight until the cells adhered to the wall.
(3) When the cell density reached approximately 80%, transfection was performed by adding 0.5 μg of mRNA sample and Lipofectamine MessengerMAX Transfection Reagent (Invitrogen) per well according to the manufacturer's instructions.
(4) After the transfected cells were cultured at 37° C. with 5% CO2 for 24 hours, the growth medium was removed from the cells to be tested, and the cells were rinsed with PBS. After centrifugation to remove PBS, 50 μL of 1× lysis buffer was added. The cells and all liquid were transferred to a microcentrifuge tube and centrifuged.
(5) 20 μL of sample was taken and added to 100 μL of Dual-Lumi™ II Luciferase Assay Reagent pre-equilibrated to room temperature, and mixed appropriately.
(6) The mixture was incubated at room temperature (approximately 25° C.) for 5 minutes to stabilize the luminescence signal. Chemiluminescence was detected using a multifunctional microplate reader with a function for detecting chemiluminescence, and the data were recorded.

[2] = 6 h after intramuscular injection of LNP Fluc-mRNA
[3] = 12 h after intramuscular injection of LNP Fluc-mRNA
[4] = 24 h after intramuscular injection of LNP Fluc-mRNA
[5] = 48 h after intramuscular injection of LNP Fluc-mRNA
[6] = 96 h after intramuscular injection of LNP Fluc-mRNA
[7] = 168 h after intramuscular injection of LNP Fluc-mRNA

Sequence of T7 RNA polymerase (P00573 whole entry): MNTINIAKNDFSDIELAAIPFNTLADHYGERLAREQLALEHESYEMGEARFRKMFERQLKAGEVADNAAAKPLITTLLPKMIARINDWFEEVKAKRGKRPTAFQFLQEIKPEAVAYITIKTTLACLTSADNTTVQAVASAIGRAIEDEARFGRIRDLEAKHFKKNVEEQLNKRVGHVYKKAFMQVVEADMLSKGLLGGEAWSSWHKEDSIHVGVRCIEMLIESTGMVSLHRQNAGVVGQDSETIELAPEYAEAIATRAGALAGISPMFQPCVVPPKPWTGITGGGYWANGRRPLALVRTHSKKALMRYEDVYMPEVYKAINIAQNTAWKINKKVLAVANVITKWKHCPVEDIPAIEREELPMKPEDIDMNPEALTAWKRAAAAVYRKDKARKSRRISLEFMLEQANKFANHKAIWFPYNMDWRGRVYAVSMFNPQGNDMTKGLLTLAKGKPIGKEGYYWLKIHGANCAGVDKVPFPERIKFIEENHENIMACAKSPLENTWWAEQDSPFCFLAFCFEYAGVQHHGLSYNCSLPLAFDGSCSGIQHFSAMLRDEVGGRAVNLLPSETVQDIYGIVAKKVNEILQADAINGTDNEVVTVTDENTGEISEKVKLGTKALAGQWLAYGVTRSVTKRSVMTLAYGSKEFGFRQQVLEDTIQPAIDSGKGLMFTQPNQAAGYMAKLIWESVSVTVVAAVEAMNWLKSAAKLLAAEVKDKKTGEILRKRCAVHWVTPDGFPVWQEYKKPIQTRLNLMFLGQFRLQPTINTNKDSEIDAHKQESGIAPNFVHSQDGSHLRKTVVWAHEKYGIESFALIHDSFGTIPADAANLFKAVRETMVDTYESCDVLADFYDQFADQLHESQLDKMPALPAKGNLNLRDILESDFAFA

Structure (SMILES)	Particle size [1] [nm]	PDI [1]	EE [1] [%]	Average radiation intensity (BALB/C mice; [2]) [p/s/cm^2/sr]	Average radiation intensity (BALB/C mice; [3]) [p/s/cm^2/sr]	Average radiation intensity (BALB/C mice; [4]) [p/s/cm^2/sr]	Average radiation intensity (BALB/C mice; [5]) [p/s/cm^2/sr]	Average radiation intensity (BALB/C mice; [6]) [p/s/cm^2/sr]	Average radiation intensity (BALB/C mice; [7]) [p/s/cm^2/sr]	average radiation intensity, times that of N-7413 (BALB/C mice; at 6 hours) [times]	average radiation intensity, times that of YK-CAP-001 (BALB/C mice; at 6 hours) [times]	average radiation intensity, times that of YK-CAP-002 (BALB/C mice; at 6 hours) [times]	average radiation intensity, times that of compound 14 (BALB/C mice; at 6 hours) [times]	average radiation intensity, times that of m6A (BALB/C mice; at 6 hours) [times]	average radiation intensity, times that of N-7413 (BALB/C mice; at 96 hours) [times]	average radiation intensity, times that of YK-CAP-001 (BALB/C mice; at 96 hours) [times]	average radiation intensity, times that of YK-CAP-002 (BALB/C mice; at 96 hours) [times]	average radiation intensity, times that of compound 14 (BALB/C mice; at 96 hours) [times]	average radiation intensity, times that of m6A (BALB/C mice; at 96 hours) [times]	Yield per unit template (T7 RNA polymerase) [µg]	also measured
COC1C(OP(=O)([O-])OC[C@H]2O[C@@H](n3cnc4c(=O)[nH]c(N)nc43)C(O)C2O)[C@@H](COP(=O)(O)OP(=O)(O)OP(=O)(O)OC[C@]23O[C@@H]([n+]4cn(C)c5c(=O)[nH]c(N)nc54)C(O[C@H]2CCS(C)(=O)=O)C3O)O[C@H]1n1cnc2c(N)ncnc21 (stereo partly shown) [YK-CAP-005]	87.01	0.064	94.5	3171000	2497200	998650	834250	110595	17807	1.1	1.8	2.2	1.2	1.8	1.6	2.5	5.3	1.9	3.3	152.6	transcription yield higher than that of compound 14 (T7 RNA polymerase): 26.2%; relative fluorescence intensity, times that of HN3002 (HEK293T cells): 1.1 times; relative fluorescence intensity, times that of N-7413 (HEK293T cells): 1.3 times; relative fluorescence intensity, times that of YK-CAP-001 (HEK293T cells): 1.6 times; relative fluorescence intensity, times that of YK-CAP-002 (HEK293T cells): 1.9 times; relative fluorescence intensity, times that of m6A (HEK293T cells): 3.7 times
COC1C(OP(=O)([O-])OC[C@H]2O[C@@H](n3cnc4c(=O)[nH]c(N)nc43)C(O)C2O)[C@@H](COP(=O)(O)OP(=O)(O)OP(=O)(O)OC[C@]23O[C@@H]([n+]4cn(C)c5c(=O)[nH]c(N)nc54)C(O[C@H]2CCS(=O)(=O)N(C)C)C3O)O[C@H]1n1cnc2c(N)ncnc21 (stereo partly shown) [YK-CAP-006]	96.64	0.029	96.3	3303900	2067750	976550	798075	75840	15660	1.2	1.9	2.3	1.3	1.8	1.1	1.7	3.6	1.3	2.3	153.1	transcription yield higher than that of compound 14 (T7 RNA polymerase): 26.6%; relative fluorescence intensity, times that of HN3002 (HEK293T cells): 1.2 times; relative fluorescence intensity, times that of N-7413 (HEK293T cells): 1.3 times; relative fluorescence intensity, times that of YK-CAP-001 (HEK293T cells): 1.7 times; relative fluorescence intensity, times that of YK-CAP-002 (HEK293T cells): 1.9 times; relative fluorescence intensity, times that of m6A (HEK293T cells): 3.7 times

Source: patent publication US12551500B2, “C6′-substituted locked nucleic acid-modified cap analog and use thereof” (Hangzhou Tianlong Pharmaceutical Co., Ltd., priority 2024, dated 2026)
